From patent US7998985B2, “1,5-diphenyl-3-pyridinylamino-1,5-dihydropyrrolidin-2-one as CB1 receptor modulator” (Eli Lilly and Company, priority 2006, dated 2011)

Columns and labels:
[1] = target: hCB1 (Homo sapiens, UniProt P21554); assay: Antibody-capture SPA GTP-γ-35S binding, antagonist/inverse agonist mode, human CB1 (CHO membranes); type: biochemical; settings: Human CB1 (CHO cells) membranes; vs saturating methanandamide; mean ± SEM; read-out: Inverse Agonist Potency (Kb)
Method: (§1) Antibody-Capture SPA GTP-γ-^35S Binding
(§2) In cell membranes expressing human or rat CB1 or CB2 receptor, test (3R,5R)-3-[1-methyl-1-(6-trifluoromethyl-pyridin-3-yl)-ethylamino]-1-(4-trifluoromethyl-phenyl)-5-(3-trifluoromethoxy-phenyl)-pyrrolidin-2-one 4-methylbenzenesulfonate (referred to as “Example 2”) for its antagonist/inverse agonist functional GTP-binding. In a 96 well format using a modified antibody capture technique (DeLapp et al., 1999), measure GTP-γ^35S binding. Briefly incubate for 30 minutes at room temperature the GTP-binding assay buffer (20 mM Hepes, 100 mM NaCl, 5 mM MgCl2, pH 7.4), the CHO or Sf9 cell membranes expressing CB1 or CB2, (Applied Cell Sciences, Gaithersburg, Md.; PerkinElmer Life Sciences, Boston, Mass.; prepare membranes as previously described (DeLapp et al., 1999)), Example 2 and the 500 pM GTP-γ-^35S (PerkinElmer Life Sciences, Boston, Mass.). Perform antagonist dose responses in the presence of a saturating dose of a full agonist (methanandamide). […]
(§3) To analyze data, subtract background from all wells. […] Determine Kb values using a modification of the Cheng-Prusoff relationship: Kb=IC50/(1+[agonist]/EC50) where IC50 is determined from a four parameter fit of displacement curves, [agonist]=EC50 of full agonist, and EC50 is determined from a four parameter fit of a full agonist concentration response curve (Cheng and Prusoff 1973). […]

[2] = system: female Sprague-Dawley rats; assay: Atypical antipsychotic (olanzapine) weight gain model; type: in vivo, rat; settings: 0.3 and 1 mg/kg Example 2 plus olanzapine, days 15-28
Excerpt: Methods: Maintain adult lean, female Sprague-Dawley rats ad libitum on normal rodent chow Purina LabDiet 5001 (12.3% fat) and water. […] Follow food intake, monitor body weight and change in fat mass over a two week treatment.

[3] = target: T1, rat CB1 receptor (Rattus norvegicus, UniProt P20272); assay: Antibody-capture SPA GTP-γ-35S binding, antagonist/inverse agonist mode, rat CB1 (CHO membranes); type: biochemical; settings: Rat CB1 (CHO cells) membranes; vs saturating methanandamide; mean ± SEM; read-out: Inverse Agonist Potency (Kb)
T1 construct: purchased Applied Cell Sciences, Gaithersburg, Md; PerkinElmer Life Sciences, Boston, Mass; host or cells: CHO cells (recombinant expression), membranes
T1 sequence (P20272 whole entry): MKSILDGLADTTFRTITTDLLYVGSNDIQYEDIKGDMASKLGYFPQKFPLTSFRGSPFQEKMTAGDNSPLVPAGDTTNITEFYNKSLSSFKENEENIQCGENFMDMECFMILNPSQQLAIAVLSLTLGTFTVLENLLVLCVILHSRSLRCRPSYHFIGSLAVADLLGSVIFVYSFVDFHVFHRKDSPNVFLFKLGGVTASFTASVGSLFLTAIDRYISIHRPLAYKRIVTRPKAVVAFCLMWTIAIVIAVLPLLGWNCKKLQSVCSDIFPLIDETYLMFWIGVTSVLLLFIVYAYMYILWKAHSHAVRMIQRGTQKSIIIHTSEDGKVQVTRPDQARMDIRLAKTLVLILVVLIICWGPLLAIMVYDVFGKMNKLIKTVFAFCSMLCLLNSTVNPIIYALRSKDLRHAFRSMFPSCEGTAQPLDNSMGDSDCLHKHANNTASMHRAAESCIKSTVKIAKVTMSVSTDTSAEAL
Method: as §1, §2, §3

hCB1, sequence (P21554 whole entry): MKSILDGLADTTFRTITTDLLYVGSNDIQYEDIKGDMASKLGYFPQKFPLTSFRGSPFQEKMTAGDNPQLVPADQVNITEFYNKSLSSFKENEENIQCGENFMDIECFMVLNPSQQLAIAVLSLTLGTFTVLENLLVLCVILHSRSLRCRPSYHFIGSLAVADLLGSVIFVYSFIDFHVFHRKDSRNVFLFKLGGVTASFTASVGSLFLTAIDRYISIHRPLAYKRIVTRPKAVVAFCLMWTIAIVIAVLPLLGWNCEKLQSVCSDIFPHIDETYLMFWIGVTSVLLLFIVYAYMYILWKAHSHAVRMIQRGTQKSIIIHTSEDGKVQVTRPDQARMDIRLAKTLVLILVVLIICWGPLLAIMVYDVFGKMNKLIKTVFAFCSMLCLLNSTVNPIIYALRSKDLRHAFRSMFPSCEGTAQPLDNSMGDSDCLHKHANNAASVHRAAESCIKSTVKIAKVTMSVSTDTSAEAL

Kb [1]: 0.71 ± 0.26 nM
Kb [3]: 1.27 ± 0.2 nM
SMILES: CC(C)(N[C@@H]1C[C@H](c2cccc(OC(F)(F)F)c2)N(c2ccc(C(F)(F)F)cc2)C1=O)c1ccc(C(F)(F)F)nc1.Cc1ccc(S(=O)(=O)O)cc1 [Example 2, (3R,5R)-3-[1-methyl-1-(6-trifluoromethyl-pyridin-3-yl)-ethylamino]-1-(4-trifluoromethyl-phenyl)-5-(3-trifluoromethoxy-phenyl)-pyrrolidin-2-one, 4-methylbenzenesulfonate (1:1)]
fat free mass under olanzapine [2]: no changes in fat free mass
fat mass gain under olanzapine [2]: significant reduction in fat mass gain
